Literature values in patent US6458923B1, “Modified position (7) bradykinin antagonist peptides” (Scios Inc., priority 1991, dated 2002).
No end group written: not given here.

Columns and labels:
pulmonary kininase = details: anesthetized rat; intra-aortic vs intravenous administration

RPPGFSPFR [Bradykinin, Arg Pro Pro Gly Phe Ser Pro Phe Arg]
half life in the systemic circulation: less than 30 seconds | destruction on a single passage through the pulmonary circulation (pulmonary kininase): 98-99%
